Measured values as given in US6358885B1, “Substituted phenylheterocyclic herbicides” (Mississippi State University, priority 1992, dated 2002).

Experiments:
[1] = system: barley; assay: Test B preemergence/postemergence greenhouse plant response rating 0 to 10; format: in vivo, Hordeum vulgare; conditions: 0 to 10 scale
Procedure, shortened: (§1)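 Postemergence treatment of plants two to eighteen cm tall ran alongside preemergence treatment of planted seed, each using compound in a non-phytotoxic solvent.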

[2] = system: bedstraw; assay: as above; format: in vivo, Galium aparine; conditions: 0 to 10 scale
Procedure, shortened: as §1

[3] = system: cheatgrass; assay: as above; format: in vivo, Bromus secalinus; conditions: 0 to 10 scale
Procedure, shortened: as §1

[4] = system: cocklebur; assay: as above; format: in vivo, Xanthium pensylvanicum; conditions: 0 to 10 scale
Procedure, shortened: as §1

[5] = system: giant foxtail; assay: as above; format: in vivo, Setaria faberii; conditions: 0 to 10 scale
Procedure, shortened: as §1

[6] = system: lambsquarters; assay: as above; format: in vivo, Chenopodium album; conditions: 0 to 10 scale
Procedure, shortened: as §1

[7] = system: morningglory; assay: as above; format: in vivo, Ipomoea hederacea; conditions: 0 to 10 scale
Procedure, shortened: as §1

[8] = system: soybean; assay: as above; format: in vivo, Glycine max; conditions: 0 to 10 scale
Procedure, shortened: as §1

[9] = system: velvetleaf; assay: as above; format: in vivo, Abutilon theophrasti; conditions: 0 to 10 scale
Procedure, shortened: as §1

[10] = system: barley; assay: Test C preemergence/postemergence greenhouse plant response rating 0 to 100; format: in vivo, Hordeum vulgare; conditions: POSTEMERGENCE; for Plant response rating Barley Igri: 0 to 100 scale
Procedure, shortened: (§2)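 Compounds in non-phytotoxic solvent applied preemergence to sandy loam one day after planting, postemergence at the 1–4 leaf stage, or to ~2.5 cm floodwater over silt loam.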

[11] = system: blackgrass; assay: as above; format: in vivo, Alopecurus myosuroides; conditions: POSTEMERGENCE; for Plant response rating, Blackgrass: 0 to 100 scale
Procedure, shortened: as §2

[12] = system: chickweed; assay: as above; format: in vivo, Stellaria media; conditions: POSTEMERGENCE; for Plant response rating, Chickweed: 0 to 100 scale
Procedure, shortened: as §2

[13] = system: giant foxtail; assay: as above; format: in vivo, Setaria faberii; conditions: POSTEMERGENCE; for Plant response rating, Giant foxtail: 0 to 100 scale
Procedure, shortened: as §2

[14] = system: morningglory; assay: as above; format: in vivo, Ipomoea hederacea; conditions: POSTEMERGENCE; for Plant response rating, Morningglory: 0 to 100 scale
Procedure, shortened: as §2

[15] = system: rape; assay: as above; format: in vivo, Brassica napus; conditions: POSTEMERGENCE; for Plant response rating, Rape: 0 to 100 scale
Procedure, shortened: as §2

[16] = system: sorghum; assay: as above; format: in vivo, Sorghum bicolor; conditions: POSTEMERGENCE; for Plant response rating, Sorghum: 0 to 100 scale
Procedure, shortened: as §2

[17] = system: soybean; assay: as above; format: in vivo, Glycine max; conditions: POSTEMERGENCE; for Plant response rating, Soybean: 0 to 100 scale
Procedure, shortened: as §2

[18] = system: rice; assay: Test C flood test plant response rating 0 to 100; format: in vivo, Oryza sativa; conditions: for Plant response rating (0 to 100), Rice Japonica: under POSTEMERGENCE head (flood test species); for Plant response rating Rice Japonica: flood test species listed under POSTEMERGENCE, 0 to 100 scale
Procedure, shortened: as §2

SMILES: C=C(Cl)COc1cc(-c2nn3c(c2Cl)CCCC3)c(F)cc1Cl [Compound 40]
- Plant response rating, Barley ([1]; POSTEMERGENCE, Rate 50 g/ha): 4
- Plant response rating, Barley ([1]; POSTEMERGENCE, Rate 200 g/ha): 5
- Plant response rating, Barley ([1]; PREEMERGENCE, Rate 50 g/ha): 0
- Plant response rating, Barley ([1]; Rate 200 g/ha, PREEMERGENCE): 1
- Plant response rating, Bedstraw ([2]; POSTEMERGENCE, Rate 50 g/ha): 10
- Plant response rating, Bedstraw ([2]; PREEMERGENCE, Rate 50 g/ha): 9
- Plant response rating, Bedstraw ([2]; Rate 200 g/ha, PREEMERGENCE): 9
- Plant response rating, Cheatgrass ([3]; POSTEMERGENCE, Rate 50 g/ha): 4
- Plant response rating, Cheatgrass ([3]; POSTEMERGENCE, Rate 200 g/ha): 4
- Plant response rating, Cheatgrass ([3]; PREEMERGENCE, Rate 50 g/ha): 0
- Plant response rating, Cheatgrass ([3]; Rate 200 g/ha, PREEMERGENCE): 4
- Plant response rating, Cocklebur ([4]; POSTEMERGENCE, Rate 50 g/ha): 5
- Plant response rating, Cocklebur ([4]; POSTEMERGENCE, Rate 200 g/ha): 10
- Plant response rating, Cocklebur ([4]; PREEMERGENCE, Rate 50 g/ha): 5
- Plant response rating, Cocklebur ([4]; Rate 200 g/ha, PREEMERGENCE): 8
- Plant response rating, Giant foxtail ([5]; POSTEMERGENCE, Rate 50 g/ha): 5
- Plant response rating, Giant foxtail ([5]; PREEMERGENCE, Rate 50 g/ha): 9
- Plant response rating, Giant foxtail ([5]; Rate 200 g/ha, POSTEMERGENCE): 6
- Plant response rating, Giant foxtail ([5]; Rate 200 g/ha, PREEMERGENCE): 9
- Plant response rating, Lambsquarter ([6]; POSTEMERGENCE, Rate 50 g/ha): 9
- Plant response rating, Lambsquarter ([6]; PREEMERGENCE, Rate 50 g/ha): 10
- Plant response rating, Lambsquarter ([6]; Rate 200 g/ha, POSTEMERGENCE): 10
- Plant response rating, Lambsquarter ([6]; Rate 200 g/ha, PREEMERGENCE): 10
- Plant response rating, Morningglory ([7]; POSTEMERGENCE, Rate 50 g/ha): 3
- Plant response rating, Morningglory ([7]; PREEMERGENCE, Rate 50 g/ha): 1
- Plant response rating, Morningglory ([7]; Rate 200 g/ha, POSTEMERGENCE): 9
- Plant response rating, Morningglory ([7]; Rate 200 g/ha, PREEMERGENCE): 4
- Plant response rating, Soybean ([8]; POSTEMERGENCE, Rate 50 g/ha): 5
- Plant response rating, Soybean ([8]; PREEMERGENCE, Rate 50 g/ha): 0
- Plant response rating, Soybean ([8]; Rate 200 g/ha, POSTEMERGENCE): 8
- Plant response rating, Soybean ([8]; Rate 200 g/ha, PREEMERGENCE): 2
- Plant response rating, Velvetleaf ([9]; POSTEMERGENCE, Rate 50 g/ha): 2
- Plant response rating, Velvetleaf ([9]; PREEMERGENCE, Rate 50 g/ha): 2
- Plant response rating, Velvetleaf ([9]; Rate 200 g/ha, POSTEMERGENCE): 10
- Plant response rating, Velvetleaf ([9]; Rate 200 g/ha, PREEMERGENCE): 8
- Plant response rating Barley Igri ([10]; 62 g/ha): 30
- Plant response rating Barley Igri ([10]; 125 g/ha): 40
- Plant response rating (0 to 100), Barley Igri ([10]; Rate 16 g/ha): 20
- Plant response rating (0 to 100), Barley Igri ([10]; Rate 31 g/ha): 30
- Plant response rating, Blackgrass ([11]; 62 g/ha): 50
- Plant response rating, Blackgrass ([11]; 125 g/ha): 70
- Plant response rating (0 to 100), Blackgrass ([11]; Rate 16 g/ha): 20
- Plant response rating (0 to 100), Blackgrass ([11]; Rate 31 g/ha): 30
- Plant response rating, Chickweed ([12]; 62 g/ha): 60
- Plant response rating, Chickweed ([12]; 125 g/ha): 90
- Plant response rating (0 to 100), Chickweed ([12]; Rate 16 g/ha): 30
- Plant response rating (0 to 100), Chickweed ([12]; Rate 31 g/ha): 30
- Plant response rating, Giant foxtail ([13]; 62 g/ha): 60
- Plant response rating, Giant foxtail ([13]; 125 g/ha): 70
- Plant response rating (0 to 100), Giant foxtail ([13]; Rate 16 g/ha): 30
- Plant response rating (0 to 100), Giant foxtail ([13]; Rate 31 g/ha): 40
- Plant response rating, Morningglory ([14]; 62 g/ha): 50
- Plant response rating, Morningglory ([14]; 125 g/ha): 70
- Plant response rating (0 to 100), Morningglory ([14]; Rate 16 g/ha): 50
- Plant response rating (0 to 100), Morningglory ([14]; Rate 31 g/ha): 50
- Plant response rating, Rape ([15]; 62 g/ha): 70
- Plant response rating, Rape ([15]; 125 g/ha): 70
- Plant response rating (0 to 100), Rape ([15]; Rate 16 g/ha): 50
- Plant response rating (0 to 100), Rape ([15]; Rate 31 g/ha): 70
- Plant response rating, Sorghum ([16]; 62 g/ha): 30
- Plant response rating, Sorghum ([16]; 125 g/ha): 50
- Plant response rating (0 to 100), Sorghum ([16]; Rate 16 g/ha): 20
- Plant response rating (0 to 100), Sorghum ([16]; Rate 31 g/ha): 20
- Plant response rating, Soybean ([17]; 62 g/ha): 50
- Plant response rating, Soybean ([17]; 125 g/ha): 60
- Plant response rating (0 to 100), Soybean ([17]; Rate 16 g/ha): 40
- Plant response rating (0 to 100), Soybean ([17]; Rate 31 g/ha): 40
- Plant response rating (0 to 100), Rice Japonica ([18]; Rate 16 g/ha): 35
- Plant response rating (0 to 100), Rice Japonica ([18]; Rate 31 g/ha): 35
- Plant response rating Rice Japonica ([18]; 62 g/ha): 40
- Plant response rating Rice Japonica ([18]; 125 g/ha): 40
